The values below come from paper PMC6579470, “A low-potential terminal oxidase associated with the iron-only nitrogenase from the nitrogen-fixing bacterium Azotobacter vinelandii” (The Journal of Biological Chemistry, 2019).

Assay [1] concerns the target T1, Anf3 (Azotobacter vinelandii, UniProt C1DK98).
T1 construct: gene Avin_49040; full-length anf3, N-terminal His6 tag cut off with thrombin; E. coli KRX; intertwined homodimer; cofactors contact both monomers
In words: X-ray crystal structure of the complex. Type of assay: binding. Conditions: protein isolated with bound FAD; FAD stacks on heme; crystals at 16 °C, 25.5% PEG 4000, 170 mM ammonium sulfate.

Assay [2] concerns the target Anf3 from Azotobacter vinelandii (Azotobacter vinelandii). In words: crystal structure; hanging-drop vapor diffusion, 25.5% PEG 4000, 170 mM ammonium sulfate, 16 °C; space group P2(1); the asymmetric unit contains a dimer.

T1 sequence (C1DK98 entry or part of it): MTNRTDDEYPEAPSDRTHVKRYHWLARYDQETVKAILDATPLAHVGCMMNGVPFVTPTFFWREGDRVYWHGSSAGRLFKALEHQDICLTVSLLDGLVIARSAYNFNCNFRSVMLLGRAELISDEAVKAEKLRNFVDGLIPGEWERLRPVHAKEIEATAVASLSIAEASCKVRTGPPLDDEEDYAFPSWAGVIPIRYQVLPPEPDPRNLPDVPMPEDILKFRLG

Take `Cc1cc2nc3c(=O)[nH]c(=O)nc-3n(C[C@H](O)[C@H](O)[C@H](O)COP(=O)(O)OP(=O)(O)OC[C@H]3O[C@@H](n4cnc5c(N)ncnc54)[C@H](O)[C@@H]3O)c2cc1C` [FAD]: in assay [1], the “X-ray crystal structure of the complex” value was “Each monomer core is a split-barrel flavin-binding domain that binds an FAD”.

Take “Anf3 from Azotobacter vinelandii (enzyme)”: in assay [2], the stoichiometry N – broadly, a count of units in the complex or per binding partner – was determined as 2.
